# Data published in US8288145B2, “Medium supplement for virus production” (AVIR Green Hills Biotechnology, priority 2006, dated 2012).
# Where “and” joins values, the source holds several entries; their conditions need not be identical. Identical values can stand only once.
# Tests used:
# [1] = system: Enzephalomyocarditis virus RNA; conditions: Borden E. et al. 1979, 1981; cited from earlier work
# SV40 virus DNA = conditions: Borden E. et al. 1979, 1981; cited from earlier work
# [2] = system: A/New Caledonia/20/99 (H1N1); format: cell-based, influenza A virus
# [3] = system: A/Vienna/28/2006 (H3N2) (A/Wisconsin/67/2005-like); format: cell-based, influenza A virus
# [4] = system: B/Vienna/32/2006 (B/Malaysia/2506/2004-like); format: cell-based, influenza B
# [5] = system: A/New Caledonia/20/99 (H1N1)-like ΔNS1 virus; format: cell-based, influenza A virus
# [6] = system: A/Wisconsin/67/2005 (H3N2)-like virus; format: cell-based, influenza A virus
# influenza B virus = format: cell-based
Structure (SMILES),infectivity of viral RNA [1],infectivity of viral DNA (SV40 virus DNA),less virus obtained when no amphotericin B is added [2],higher virus titre if grown in the presence of amphotericin B [3],titre of B virus in the presence of amphotericin B [4],increase of sensitivity (titre) of TCID50 titration [5],cytopathic effect of transfectant virus [6],titre of transfectant virus [6],clinical samples positive for virus isolation (influenza B virus)
COC(=O)[C@H]1[C@@H]2C[C@@H](O[C@@H]3O[C@H](C)[C@@H](O)[C@H](N)[C@@H]3O)/C=C/C=C/C=C/C=C/C=C/C=C/C=C/[C@H](C)[C@@H](O)[C@@H](C)[C@H](C)OC(=O)C[C@H](O)C[C@H](O)CC[C@@H](O)[C@H](O)C[C@H](O)C[C@](O)(C[C@@H]1O)O2 [Amphotericin B methyl ester],increase the infectivity,increase the infectivity,,,,,,,
C[C@@H]1[C@H](O)[C@@H](C)/C=C/C=C/C=C/C=C/C=C/C=C/C=C/[C@H](O[C@@H]2O[C@H](C)[C@@H](O)[C@H](N)[C@@H]2O)C[C@@H]2O[C@](O)(C[C@@H](O)C[C@@H](O)[C@H](O)CC[C@@H](O)C[C@@H](O)CC(=O)O[C@H]1C)C[C@H](O)[C@H]2C(=O)O [amphotericin B],,,1 log,≥ 1 log,more than 1E+08 pfu/ml,~1 log,clear cytopathic effect,2E+04 TCID50/ml and 2.0E+04 TCID50/ml,9
